Measurements published in ChEMBL document CHEMBL1201862, “PubChem BioAssay data set” (2004).
Structures can show the parent of a compound that is named as a salt.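 The compound was tested at five concentrations on cells cultured in 96-well plates, with a 48-hour exposure period. At the GI50, growth is halved.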 The source made the active and inactive calls. Rule as the data show it: active = GI50 up to about 1.1 µM and inactive = higher.

How the values were obtained:
Assay in all cases: DTP human tumour cell line panel, 48 h
A549 = test system: A549
COLO 205 = test system: COLO 205
HCC 2998 = test system: HCC 2998
HL-60 = test system: HL-60
Hs-578T = test system: Hs-578T
K562 = test system: K562
M14 = test system: M14
MDA-MB-231 = test system: MDA-MB-231
Malme-3M = test system: Malme-3M
OVCAR-4 = test system: OVCAR-4
OVCAR-8 = test system: OVCAR-8
RXF 393 = test system: RXF 393
SK-MEL-28 = test system: SK-MEL-28
SK-OV-3 = test system: SK-OV-3
SN12C = test system: SN12C
SNB-19 = test system: SNB-19
SR = test system: SR
TK-10 = test system: TK-10
UACC-62 = test system: UACC-62
MDA-N = test system: MDA-N

Structure (SMILES)	GI50 (A549)	GI50 (COLO 205)	GI50 (HCC 2998)	GI50 (HL-60)	GI50 (Hs-578T)	GI50 (K562)	GI50 (M14)	GI50 (MDA-MB-231)	GI50 (Malme-3M)	GI50 (OVCAR-4)	GI50 (OVCAR-8)	GI50 (RXF 393)	GI50 (SK-MEL-28)	GI50 (SK-OV-3)	GI50 (SN12C)	GI50 (SNB-19)	GI50 (SR)	GI50 (TK-10)	GI50 (UACC-62)	GI50 (MDA-N)
Cc1[nH]nc(C(=O)N/N=C/c2ccccc2Cl)c1/N=N\N(C)C	> 100 µM (inactive)	> 100 µM (inactive)	> 100 µM (inactive)	4.82 µM (inactive)	2.09 µM (inactive)	0.802 µM (active)	> 100 µM (inactive)	> 43.5 µM (inactive)	> 39.4 µM (inactive)	14.9 µM (inactive)	7.98 µM (inactive)	> 37.9 µM (inactive)	> 100 µM (inactive)	> 100 µM (inactive)	> 54.3 µM (inactive)	> 100 µM (inactive)	0.171 µM (active)	56.6 µM (inactive)	> 100 µM (inactive)	
CCCCCCCCCCCCCCCCOP(=O)([O-])OCC[N+](C)(C)C1CC(C)(C)N(O)C(C)(C)C1	> 100 µM (inactive)	> 100 µM (inactive)	> 100 µM (inactive)		> 100 µM (inactive)		> 100 µM (inactive)	> 100 µM (inactive)	> 100 µM (inactive)	> 100 µM (inactive)	> 100 µM (inactive)	> 100 µM (inactive)		> 100 µM (inactive)		> 100 µM (inactive)	> 100 µM (inactive)	> 100 µM (inactive)	> 100 µM (inactive)	
Clc1cc(OCc2nn3c(Cc4ccccc4)nnc3s2)ccc1OCc1nn2c(Cc3ccccc3)nnc2s1	32.2 µM (inactive)	> 100 µM (inactive)	44.1 µM (inactive)	50.2 µM (inactive)	48.9 µM (inactive)	95.9 µM (inactive)	87.7 µM (inactive)	18.5 µM (inactive)	37.5 µM (inactive)	19.4 µM (inactive)	20.7 µM (inactive)	27.7 µM (inactive)	42.2 µM (inactive)	26.7 µM (inactive)	45.3 µM (inactive)	24.6 µM (inactive)	35 µM (inactive)	29.4 µM (inactive)	40.6 µM (inactive)	
COc1ccc2nc3n(c2c1)C(c1c(F)cccc1Cl)SC3 (stereo unspecified)	> 100 µM (inactive)	> 100 µM (inactive)	> 100 µM (inactive)	9.31 µM (inactive)		> 100 µM (inactive)	> 100 µM (inactive)			> 100 µM (inactive)	46.8 µM (inactive)	> 100 µM (inactive)	> 100 µM (inactive)	> 100 µM (inactive)	> 100 µM (inactive)	> 100 µM (inactive)	> 100 µM (inactive)	> 100 µM (inactive)	> 100 µM (inactive)	> 100 µM (inactive)
COc1ccc(-c2c(-c3ccc(OC)cc3)n3c(=O)n(C)c(=O)n23)cc1	53.3 µM (inactive)	> 100 µM (inactive)	> 100 µM (inactive)			> 100 µM (inactive)	> 100 µM (inactive)	> 100 µM (inactive)	91.6 µM (inactive)	23.3 µM (inactive)	17.6 µM (inactive)	76.4 µM (inactive)	> 100 µM (inactive)	50.5 µM (inactive)	34 µM (inactive)	17.1 µM (inactive)		33.3 µM (inactive)	30.5 µM (inactive)	> 10 µM (inactive)
COc1ccc(OC)c(NC(=O)c2c(Cl)c(Cl)c(Cl)c(Cl)c2-c2nc3ccccc3[nH]2)c1	> 100 µM (inactive)	> 100 µM (inactive)	> 100 µM (inactive)	53.7 µM (inactive)	> 100 µM (inactive)	> 100 µM (inactive)	> 100 µM (inactive)		> 100 µM (inactive)	> 100 µM (inactive)	56.9 µM (inactive)	> 100 µM (inactive)	> 100 µM (inactive)	> 100 µM (inactive)	80.4 µM (inactive)	> 100 µM (inactive)	52.6 µM (inactive)		> 100 µM (inactive)	> 100 µM (inactive)
CN(C)NC1=NS(=O)(=O)c2cc3c(=O)n(C)[nH]c3cc2S1	> 10 µM (inactive)	> 10 µM (inactive)	> 10 µM (inactive)	> 10 µM (inactive)	> 10 µM (inactive)	> 10 µM (inactive)	> 10 µM (inactive)		> 10 µM (inactive)	> 10 µM (inactive)	> 10 µM (inactive)	> 10 µM (inactive)	> 10 µM (inactive)	> 10 µM (inactive)	> 10 µM (inactive)	> 10 µM (inactive)	> 10 µM (inactive)	> 10 µM (inactive)		> 10 µM (inactive)
CN(C)CCC=C1c2ccccc2C=Cc2ccccc21 [CYCLOBENZAPRINE HYDROCHLORIDE]	20 µM (inactive)	14.4 µM (inactive)	5.4 µM (inactive)		18.8 µM (inactive)	18.5 µM (inactive)	15.8 µM (inactive)	17.3 µM (inactive)	16.9 µM (inactive)	23.1 µM (inactive)	16 µM (inactive)	14.5 µM (inactive)	16.1 µM (inactive)	16.1 µM (inactive)	16.9 µM (inactive)	19.8 µM (inactive)	17.9 µM (inactive)	16.2 µM (inactive)	16.6 µM (inactive)	
